Test results published in patent publication US20180327364A1, “MTOR INHIBITORS AND METHODS OF USE THEREOF” (Brandeis University, priority 2015, published 2018).

Assays:
[1] = test system: mTOR; experiment: mTOR level and mTOR phosphorylation immunoblot in HEK-293T cells; format: cell-based; conditions: 10 μM, 4 h
Experimental: (§1) Quantification of western blots was performed with ImageJ. Cells were lysed in RIPA buffer (1% NP-40, 1% NaDeoxycholate, 0.1% SDS, 10 mM TrisCl, 10 mM β-glycerophosphate, 10 mM Na pyrophosphate, 50 mM NaF, 200 μM Na vanadate, 1 mM EDTA, 500 μM EGTA, 1% benzonase, and supplemented with complete (Roche Diagnostics) protease inhibitors).

[2] = test system: MOLT-4; experiment: NCI-60 DTP Human Tumor Cell Line Screen, MOLT-4; format: cell-based; conditions: 10 μM, 48 h
Experimental: (§2) Screen was conducted as previously described, performed at Developmental Therapeutics Program NCI/NIH.

[3] = test system: K562, BaF3/p210, and HEK-293T cells; experiment: LDH release cytotoxicity assay; format: cell-based; conditions: 4 and 48 h
Experimental: (§3) To determine cellular growth, CellTiter-Glo luminescent cell viability assay (Promega) was used per the manufacturer's instruction. To determine cytotoxicity, LDH release was measured with the LDH Cytotoxicity Assay Kit (Pierce) according to the manufacture's protocol. For 4 h assays, 96 well plates were seeded at 75,000 cells/mL for BaF3/p210 cells or K562 cells. For HEK-293T cells, 10,000 cells/well were plated 24 h before treatment. Cells were treated for 4 h at 37° C. and […] was removed from every well and used in the LDH Cytotoxicity assay per the manufacturer's protocol. For 48 h assays, 7,500 cells/mL of BaF3/p210 or K562 cells were incubated with compound at 37° C. for 48 h (200 μL/well). For HEK-293T cells, 1,000 cells/well were plated 24 h prior to compound treatment. After treatment, 50 μL was removed from each well for the LDH assay for all cell lines and 100 μL of mixed cells were removed and used with the CellTiter-Glo kit for K562 and BaF3/p210 cells. For HEK-293T cells, wells were treated directed with the CellTiter-Glo kit. Cytotoxicity or viability was measured by luminosity and absorbance on a microplate reader.

[4] = biological target: T1, ubiquilin 4 (Homo sapiens, UniProt Q9NRR5); experiment: Cellular thermal shift assay (CETSA) in HEK-293T lysate; format: binding; conditions: 100 μM Cbz-B3A, lysate incubated 30 min
T1 construct: endogenous in cells; host or cells: HEK-293T lysate
T1 sequence (Q9NRR5 whole entry): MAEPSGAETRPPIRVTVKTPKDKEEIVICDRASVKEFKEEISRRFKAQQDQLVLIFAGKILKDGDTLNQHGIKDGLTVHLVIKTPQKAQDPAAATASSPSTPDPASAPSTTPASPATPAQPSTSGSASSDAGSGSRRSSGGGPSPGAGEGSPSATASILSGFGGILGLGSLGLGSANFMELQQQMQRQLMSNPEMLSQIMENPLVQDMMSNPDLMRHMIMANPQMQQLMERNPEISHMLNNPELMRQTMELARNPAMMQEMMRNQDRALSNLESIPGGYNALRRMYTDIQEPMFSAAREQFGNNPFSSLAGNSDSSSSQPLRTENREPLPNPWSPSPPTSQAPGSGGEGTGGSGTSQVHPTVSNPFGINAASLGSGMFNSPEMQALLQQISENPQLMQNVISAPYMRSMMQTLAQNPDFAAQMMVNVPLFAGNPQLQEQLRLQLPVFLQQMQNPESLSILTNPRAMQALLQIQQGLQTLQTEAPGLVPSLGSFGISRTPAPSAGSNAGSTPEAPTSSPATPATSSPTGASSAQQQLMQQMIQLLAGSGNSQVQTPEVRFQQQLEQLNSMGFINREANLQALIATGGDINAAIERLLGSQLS
Experimental: CETSA was performed as previously described. Briefly, HEK-293T cells were lysed in DPBS with Roche complete protease inhibitor by 3 quick freeze thaws, centrifuged at 20,000 g for 20 min at 4° C., and the supernatant was adjusted to 4 mg/mL. Lysate was incubated with compound for 30 min and heated to different temperatures in a thermal cycler for 3 min, then cooled to room temperature for 3 min. All samples were then centrifuged at 20,000 g for 20 min at 4° C. and a western blot was run on the supernatant.

[5] = test system: protein translation in HEK-293T cells; experiment: 35S-methionine/cysteine incorporation translation assay; format: cell-based; conditions: Homo sapiens, HEK-293T, 4 h treatment then 1 h labeling
Experimental: 80,000 cells/well of HEK-293T cells were plated into 24 well plates 24 h before the assay. Cells were treated with indicated concentration of compound for 4 h. After 4 h, the media was removed and replaced with DMEM without methionine and cysteine (Lifetechnologies) supplemented with 0.2 mCi/mL EXPRESS [^35S] protein labeling mix (PerkinElmer), 10% dialyzed FBS (Pierce), 1× glutaMax (Gibco), 100 U/mL penicillin 100 μg/mL streptomycin (Gibco), 1 mM sodium pyruvate (Lifetechnologies), and the indicated concentration of compound. After 1 h, this media was removed, cells were washed with ice cold PBS, and lysed with low deoxycholate RIPA buffer (10 mM Tris-Cl, 1% NP-40, 0.5% Na Deoxycholate, 0.1% SDS, 140 mM NaCl, 1 mM EDTA, 500 μM EGTA, 1× Roche Complete protease inhibitors, 1:100 Benzonase, and at pH 8.0). Lysate was centrifuged at maximum speed for 20 m at 4° C. The concentration was measured by Bradford assay. 10 μg of lysate was added to […] ice cold 1 mg/mL BSA with 0.02% Na Azide. 1 mL of ice cold 10% TCA was added, the solutions were mixed and incubated on ice for 0.5 h. These mixtures were vacuum filtered onto GF/C Whatman glass microfiber filters. The filters were washed with 2×5 mL of 10% TCA, then 2×3 mL ethanol. The filters were then dried for a 0.5 h. The filters were placed into scintillation vials with 5 mL of scintillation fluid and read on a scintillation counter.

[6] = test system: p70s6k phosphorylation (mTORC1); experiment: p70s6k phosphorylation immunoblot in HEK-293T cells; format: cell-based
Experimental: as §1

[7] = test system: eIF2α; experiment: eIF2α phosphorylation immunoblot in HEK-293T cells; format: cell-based; conditions: 1 h; tunicamycin 5 μg/mL, thapsigargin 500 nM; compared with vehicle
Experimental: as §1

[8] = test system: K562 cells; experiment: CellTiter-Glo proliferation, K562; format: cell-based; conditions: Homo sapiens, 48 h
Experimental: as §3

[9] = test system: K562 cells; experiment: NCI-60 DTP Human Tumor Cell Line Screen, K562; format: cell-based; conditions: 48 h, read-out: inhibition of proliferation, K562
Experimental: as §2

[10] = test system: BaF3/p210 cells; experiment: CellTiter-Glo proliferation, BaF3/p210; format: cell-based; conditions: Mus musculus, 48 h
Experimental: as §3

[11] = biological target: T2, recombinant firefly luciferase (Photinus pyralis, UniProt P08659); experiment: Recombinant luciferase assay; format: biochemical; conditions: 100 μM compound, 10 min incubation
T2 construct: purchased Promega
T2 sequence (P08659 whole entry): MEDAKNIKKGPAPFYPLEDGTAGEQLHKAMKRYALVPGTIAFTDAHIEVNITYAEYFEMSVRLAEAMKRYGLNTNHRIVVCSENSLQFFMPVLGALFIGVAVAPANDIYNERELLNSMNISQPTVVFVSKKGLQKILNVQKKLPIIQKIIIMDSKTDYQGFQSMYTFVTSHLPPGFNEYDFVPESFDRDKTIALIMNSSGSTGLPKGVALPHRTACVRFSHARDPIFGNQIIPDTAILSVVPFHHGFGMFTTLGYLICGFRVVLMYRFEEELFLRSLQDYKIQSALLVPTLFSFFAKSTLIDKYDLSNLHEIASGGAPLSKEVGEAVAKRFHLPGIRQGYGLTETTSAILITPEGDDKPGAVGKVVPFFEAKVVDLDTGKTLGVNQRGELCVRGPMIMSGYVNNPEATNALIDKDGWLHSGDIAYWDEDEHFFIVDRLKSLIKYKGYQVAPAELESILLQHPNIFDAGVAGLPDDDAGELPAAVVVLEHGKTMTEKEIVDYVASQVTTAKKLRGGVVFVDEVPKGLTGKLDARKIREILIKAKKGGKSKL
Experimental: Stably transduced luciferase HEK-293T cells were plated in 96-well plates 24 h prior to treatment with 100 μM of Cbz-B3A, amine-B3A, acetyl-B3A, and Cbz-acetyl. After 4 h, cells were harvested and measured with Luciferase Assay System with Reporter Lysis Buffer from Promega according to the manufacturer's protocol. Before the addition of luciferin, protein concentration was measured by removing 2 μl of lysate from each well and adding it to diluted Bio-Rad Protein Assay Dye Reagent Concentrate, and the absorbance was measured at OD595. The protein concentration was used to normalize luciferase signal. For translation assays, cells were pretreated for 15 min with 100 μg/mL cycloheximide or 6 μM bortezomib. For the recombinant luciferase assay, Quantilum Recombinant Luciferase (Promega) was diluted 1:250,000 in reporter lysis buffer with 1 mg/mL BSA then mixed 1:1 with 200 μM compound in the same buffer for a final dilution of 1:500,000 and 100 μM compound in 20 μL. This was incubated for 10 min at room temperature then measured with Luciferase Assay System with Reporter Lysis Buffer from Promega according to the manufacturer's protocol.

[12] = test system: Rheb; experiment: Rheb level immunoblot in HEK-293T cells; format: cell-based; conditions: 10 μM, 4 h; p=0.04 vs DMSO
Experimental: as §1

CC(C)(C)OC(=O)/N=C(\NCCC[C@H](NC(=O)OC(C)(C)C)C(=O)NCCCCCCNC(=O)OCc1ccccc1)NC(=O)OC(C)(C)C [Cbz-B3A]
Ser2481 phosphorylation of mTOR [1]: no change in Ser2481 phosphorylation
levels of mTOR [1]: did not change
phosphorylation of mTOR at Ser2448 [1]: only a small effect
decrease in proliferation, MOLT-4 [2]: 80%
cytotoxicity by release of lactate dehydrogenase [3]: not cytotoxic
melting temperature shift of ubiquilin 4 [4]: clear shift to a lower melting temperature
EC50 ([5]; read-out: EC50 of inhibition of 35S-methionine/cysteine incorporation): ~3 µM
inhibition at 10 µM ([5]; saturating concentration (Cbz-B3A 10 μM), read-out: maximal inhibition of translation (35S-methionine/cysteine incorporation)): 68%
p70s6k Ser371 phosphorylation ([6]; 10 μM, 4 h): did not inhibit phosphorylation
EC50 ([6]; Homo sapiens, HEK-293T, 4 h, read-out: EC50 of inhibition of p70s6k Thr389 phosphorylation): ~5 µM
phosphorylation retained at Thr389 of p70s6k ([6]; at maximum inhibition): approximately 30%
eIF2α phosphorylation [7]: no increase in eIF2α phosphorylation
inhibition at 10 µM [8]: 52%
inhibition at 10 µM [9]: 39%
inhibition at 10 µM [10]: 68%
recombinant firefly luciferase signal (enzymatic activity) [11]: no reduction of signal
amount of Rheb [12]: increased the amount of Rheb
